The record followed here is patent US11691949B2, “Quinoline sulfonamide compounds and their use as antibacterial agents” (OTAGO INNOVATION LIMITED, priority 2017, dated 2023).

Format in all cases: cell-based
One test relates to S. uberis ATCC 19436. Nature of the test: MIC by broth microdilution, S. uberis. Particulars: Streptococcus uberis, read-out: S. uberis ATCC 19436 MIC. The method, then:
(§1) Antibacterial susceptibility testing was performed in triplicate (biological) by measuring minimum inhibitory concentrations (MICs) by broth microdilution in 96-well flat bottom microtiter plates (ThermoFisher Scientific, New Zealand). S. uberis ATCC 19436, S. aureus ATCC 6538, or E. coli ATCC 10596 cells grown overnight were diluted to an OD600 of approximately 0.025, so that the final concentration of cells in the MIC assay was approximately 5×10^5 cfu/mL in media as follows: S. uberis; Todd Hewitt Broth (THB), S. aureus; Tryptic Soy Broth (TSB) and Cation Adjusted Muller Hinton Broth (CAMHB), and E. coli; Lysogeny Borth (LB) and CAMHB, before being dispensed into microtiter wells. As required additional sterile Zinc Sulphate (Heptahydrate) was supplemented into the media, so the final concentration was 50 μM. Test compounds were added to starting wells and two-fold serial dilutions were undertaken to generate a range of inhibitor concentrations at a final volume of 200 μl. Media and test compound-free (untreated) controls were included in each microtiter plate in triplicate. After 24 h incubation at 37° C. and 200 rpm, the OD600 of wells were read using a Varioskan Flash plate reader (ThermoFisher Scientific, New Zealand). The MIC was reported as the lowest concentration of the test compound for which no growth occurred, as determined by OD600 readings. The minimum bactericidal concentration (MBC) was determined using the Miles-Misra drop-plate method to measure the viability of cells in response to test compound challenge.
For orientation: Dilution methods test growth across graded concentrations, often in twofold steps.

The subject of the next test is S. aureus ATCC 6538. Nature of the test: MIC by broth microdilution, S. aureus. The following applies: Staphylococcus aureus, read-out: S. aureus ATCC 6538 MIC. The method, then: as §1
The test system of another test is E. coli ATCC 10596. The test can be described thus: MIC by broth microdilution, E. coli. The following applies: Escherichia coli, read-out: E. coli ATCC 10536 MIC. The method, then:
as §1

[1] abbreviates: ATCC 10536 / ATCC 10596, No Zinc.
Where [2] appears, read: ATCC 10536 / ATCC 10596, Zinc (50 μM).

≈ marks a conversion by molar mass, not a printed value. Read-outs that look alike come from different tables or passages of the source.

With `CN(C)Cc1ccc2cccc(NS(=O)(=O)c3cccc(OC(F)(F)F)c3)c2n1` [ZDR085, N-(2-((Dimethylamino)methyl)quinolin-8-yl)-3-(trifluoromethoxy)benzenesulfonamide], the MIC – broadly, the smallest concentration in the dilution series that meets the test's criterion for growth inhibition – in the test with S. uberis ATCC 19436 (ATCC19436, No Zinc) is 128 mg/L (≈ 301 µM); in the test with S. uberis ATCC 19436 (ATCC19436, Zinc (50 μM)), less than 0.125 mg/L; in the test with S. aureus ATCC 6538 (ATCC6538, No Zinc) it was 256 mg/L (≈ 602 µM); with S. aureus ATCC 6538 (ATCC6538, Zinc (50 μM)) it was more than 256 mg/L; with E. coli ATCC 10596 (setting [1]), 256 mg/L (≈ 602 µM); in the test with E. coli ATCC 10596 (setting [2]), more than 256 mg/L.

On to `O=S(=O)(Nc1cccc2ccc(CNC3CC3)nc12)c1ccc(C(F)(F)F)cc1` [ZDR086, N-(2-((Cyclopropylamino)methyl)quinolin-8-yl)-4-(trifluoromethyl)benzenesulfonamide], for which the MIC with S. uberis ATCC 19436 (ATCC19436, No Zinc) was 64 mg/L (≈ 152 µM); in the test with S. uberis ATCC 19436 (ATCC19436, Zinc (50 μM)), 0.25 mg/L (≈ 0.593 µM); with S. aureus ATCC 6538 (ATCC6538, No Zinc) it was 64 mg/L (≈ 152 µM); with S. aureus ATCC 6538 (ATCC6538, Zinc (50 μM)), more than 256 mg/L; with E. coli ATCC 10596 (setting [1]), 128 mg/L (≈ 304 µM); in the test on E. coli ATCC 10596 (setting [2]), 256 mg/L (≈ 607 µM).

Turning to `O=S(=O)(Nc1cccc2ccc(CNCC3CC3)nc12)c1ccc(C(F)(F)F)cc1` [ZDR087, N-(2-(((Cyclopropylmethyl)amino)methyl)quinolin-8-yl)-4-(trifluoromethyl)benzenesulfonamide], the MIC is 256 mg/L (≈ 588 µM) in the test on S. uberis ATCC 19436 (ATCC19436, No Zinc); 0.25 mg/L (≈ 0.574 µM) in the test on S. uberis ATCC 19436 (ATCC19436, Zinc (50 μM)); 128 mg/L (≈ 294 µM) with S. aureus ATCC 6538 (ATCC6538, No Zinc); more than 256 mg/L in the test on S. aureus ATCC 6538 (ATCC6538, Zinc (50 μM)); 256 mg/L (≈ 588 µM) in the test on E. coli ATCC 10596 (setting [1]); more than 256 mg/L with E. coli ATCC 10596 (setting [2]).

With `O=S(=O)(Nc1cccc2ccc(CN3CCSCC3)nc12)c1ccc(C(F)(F)F)cc1` [ZDR088, N-(2-(Thiomorpholinomethyl)quinolin-8-yl)-4-(trifluoromethyl)benzenesulfonamide], the minimal inhibitory concentration (MIC) is more than 256 mg/L in the test on S. uberis ATCC 19436 (ATCC19436, No Zinc); 0.0625 mg/L (≈ 0.134 µM) in the test with S. uberis ATCC 19436 (ATCC19436, Zinc (50 μM)); more than 256 mg/L with S. aureus ATCC 6538 (ATCC6538, No Zinc); more than 256 mg/L in the test on S. aureus ATCC 6538 (ATCC6538, Zinc (50 μM)); more than 256 mg/L with E. coli ATCC 10596 (setting [1]); more than 256 mg/L with E. coli ATCC 10596 (setting [2]).

`CN1CCN(Cc2ccc3cccc(NS(=O)(=O)c4ccc(C(F)(F)F)cc4)c3n2)CC1` [ZDR089, N-(2-((4-Methylpiperazin-1-yl)methyl)quinolin-8-yl)-4-(trifluoromethyl)benzenesulfonamide]: the MIC was 64 mg/L (≈ 138 µM) in the test on S. uberis ATCC 19436 (ATCC19436, No Zinc); 0.5 mg/L (≈ 1.08 µM) with S. uberis ATCC 19436 (ATCC19436, Zinc (50 μM)); 256 mg/L (≈ 551 µM) in the test with S. aureus ATCC 6538 (ATCC6538, No Zinc); 128 mg/L (≈ 276 µM) in the test with S. aureus ATCC 6538 (ATCC6538, Zinc (50 μM)); more than 256 mg/L in the test on E. coli ATCC 10596 (setting [1]); more than 256 mg/L in the test on E. coli ATCC 10596 (setting [2]).

As for `O=S(=O)(Nc1cccc2ccc(CNCC(O)CO)nc12)c1ccc(C(F)(F)F)cc1` (stereo not drawn) [ZDR093, N-(2-(((2,3-Dihydroxypropyl)amino)methyl)quinolin-8-yl)-4-(trifluoromethyl)benzenesulfonamide], the MIC in the test with S. uberis ATCC 19436 (ATCC19436, No Zinc) is 64 mg/L (≈ 141 µM); in the test with S. uberis ATCC 19436 (ATCC19436, Zinc (50 μM)) it was 16 mg/L (≈ 35.1 µM); in the test with S. aureus ATCC 6538 (ATCC6538, No Zinc), 64 mg/L (≈ 141 µM); in the test on S. aureus ATCC 6538 (ATCC6538, Zinc (50 μM)), 128 mg/L (≈ 281 µM); in the test with E. coli ATCC 10596 (setting [1]) it was 256 mg/L (≈ 562 µM); with E. coli ATCC 10596 (setting [2]), more than 256 mg/L.

With `O=S(=O)(Nc1cccc2ccc(CN(CCO)CCO)nc12)c1ccc(C(F)(F)F)cc1` [ZDR094, N-(2-((Bis(2-hydroxyethyl)amino)methyl)quinolin-8-yl)-4-(trifluoromethyl)benzenesulfonamide], the minimal inhibitory concentration (MIC) in the test on S. uberis ATCC 19436 (ATCC19436, No Zinc) turned out to be 32 mg/L (≈ 68.2 µM); with S. uberis ATCC 19436 (ATCC19436, Zinc (50 μM)), 4 mg/L (≈ 8.52 µM); in the test on S. aureus ATCC 6538 (ATCC6538, No Zinc), 62 mg/L (≈ 132 µM); in the test with S. aureus ATCC 6538 (ATCC6538, Zinc (50 μM)) it was 32 mg/L (≈ 68.2 µM); in the test on E. coli ATCC 10596 (setting [1]), 256 mg/L (≈ 545 µM); in the test on E. coli ATCC 10596 (setting [2]) it was 256 mg/L (≈ 545 µM).

Turning to `O=S(=O)(Nc1cccc2ccc(CN(Cc3ccccn3)Cc3ccccn3)nc12)c1ccc(C(F)(F)F)cc1` [ZDR096, N-(2-((Bis(pyridin-2-ylmethyl)amino)methyl)quinolin-8-yl)-4-(trifluoromethyl)benzenesulfonamide], the MIC was 64 mg/L (≈ 114 µM) in the test on S. uberis ATCC 19436 (ATCC19436, No Zinc); 4 mg/L (≈ 7.1 µM) with S. uberis ATCC 19436 (ATCC19436, Zinc (50 μM)); more than 256 mg/L in the test on S. aureus ATCC 6538 (ATCC6538, No Zinc); more than 256 mg/L with S. aureus ATCC 6538 (ATCC6538, Zinc (50 μM)); more than 256 mg/L in the test with E. coli ATCC 10596 (setting [1]); more than 256 mg/L in the test on E. coli ATCC 10596 (setting [2]).

Take `C=CCNCc1ccc2cccc(NS(=O)(=O)c3ccc(C(F)(F)F)cc3)c2n1` [ZDR097, N-(2-((Allylamino)methyl)quinolin-8-yl)-4-(trifluoromethyl)benzenesulfonamide]: the MIC with S. uberis ATCC 19436 (ATCC19436, No Zinc) is more than 256 mg/L; in the test on S. uberis ATCC 19436 (ATCC19436, Zinc (50 μM)) it was 0.0625 mg/L (≈ 0.148 µM); in the test with S. aureus ATCC 6538 (ATCC6538, No Zinc) it was more than 256 mg/L; with S. aureus ATCC 6538 (ATCC6538, Zinc (50 μM)), more than 256 mg/L; with E. coli ATCC 10596 (setting [1]), more than 256 mg/L; in the test on E. coli ATCC 10596 (setting [2]), 256 mg/L (≈ 607 µM).

Regarding `C#CCNCc1ccc2cccc(NS(=O)(=O)c3ccc(C(F)(F)F)cc3)c2n1` [ZDR098, N-(2-((Prop-2-yn-1-ylamino)methyl)quinolin-8-yl)-4-(trifluoromethyl)benzenesulfonamide], the MIC is 64 mg/L (≈ 153 µM) in the test on S. uberis ATCC 19436 (ATCC19436, No Zinc); 0.125 mg/L (≈ 0.298 µM) in the test on S. uberis ATCC 19436 (ATCC19436, Zinc (50 μM)); 64 mg/L (≈ 153 µM) in the test with S. aureus ATCC 6538 (ATCC6538, No Zinc); more than 256 mg/L in the test on S. aureus ATCC 6538 (ATCC6538, Zinc (50 μM)); more than 256 mg/L in the test with E. coli ATCC 10596 (setting [1]); more than 256 mg/L in the test with E. coli ATCC 10596 (setting [2]).
